Key:
Assay type in all cases: cell-based
A549 = test: In vitro inhibition test for cancer cell proliferation (MTT), A549; conditions: unit inferred
HeLa = test: In vitro inhibition test for cancer cell proliferation (MTT), HeLa; conditions: 24 h or 48 h after addition, unit inferred
MCF-7 = test: In vitro inhibition test for cancer cell proliferation (MTT), MCF-7; conditions: unit inferred
L929 = test: In vitro cell proliferation inhibition test (MTT), L929; conditions: unit inferred

Row | SMILES | IC50 (A549; 24 h or 48 h after addition) [µM] | IC50 (HeLa) [µM] | IC50 (MCF-7; 24 h or 48 h after addition) [µM] | IC50 (L929; 24 h or 48 h after addition) [µM] | IC50 (A549; Homo sapiens, A549, 24 h or 48 h after addition) [µM] | IC50 (HeLa; Homo sapiens, HeLa) [µM] | IC50 (MCF-7; Homo sapiens, MCF7, 24 h or 48 h after addition) [µM] | IC50 (L929; Mus musculus, L929, 24 h or 48 h after addition) [µM]
1 | Cn1c[n+](C)c2c1C(=O)c1ccccc1/C2=N\O [Compound 91, (E)-1-methyl-4-(hydroxylimino)-3-methyl-9-oxo-4,9-dihydro-1H-naphthol[2,3-d]imidazole-3-iodide] | 0.53 | 0.67 | 0.84 | 4.7 |  |  |  | 
2 | CCn1c[n+](C)c2c1C(=O)c1ccccc1/C2=N\O [Compound 92, (E)-1-ethyl-4-(hydroxylimino)-3-methyl-9-oxo-4,9-dihydro-1H-naphthol[2,3-d]imidazole-3-iodide] | 0.54 | 1.63 | 0.94 | 13.5 |  |  |  | 
3 | CCCn1c[n+](C)c2c1C(=O)c1ccccc1/C2=N\O [Compound 93, (E)-4-(hydroxylimino)-3-methyl-9-oxo-1-propyl-4,9-dihydro-1H-naphthol[2,3-d]imidazole-3-iodide] | 1.03 | 2.18 | 1.43 | 32.7 |  |  |  | 
4 | CCCCn1c[n+](C)c2c1C(=O)c1ccccc1/C2=N\O [Compound 94, (E)-1-butyl-4-(hydroxylimino)-3-methyl-9-oxo-4,9-dihydro-1H-naphthol[2,3-d]imidazole-3-iodide] |  |  |  |  | 0.67 | 1.43 | 0.84 | 39.2
5 | CC(C)n1c[n+](C)c2c1C(=O)c1ccccc1/C2=N\O [Compound 95, (E)-4-(hydroxylimino)-1-isopropyl-3-methyl-9-oxo-4,9-dihydro-1H-naphthol[2,3-d]imidazole-3-iodide] | 1.89 | 18.3 | 2 | 26.3 |  |  |  | 
6 | CC(C)Cn1c[n+](C)c2c1C(=O)c1ccccc1/C2=N\O [Compound 96, (E)-4-(hydroxylimino)-1-isobutyl-3-methyl-9-oxo-4,9-dihydro-1H-naphthol[2,3-d]imidazole-3-iodide] | 2.43 | 9.7 | 1.26 | 57.4 |  |  |  | 
7 | CCC(C)Cn1c[n+](C)c2c1C(=O)c1ccccc1/C2=N\O (stereo not drawn) [Compound 97, (E)-4-(hydroxylimino)-3-methyl-1-(2-methylbutyl)-9-oxo-4,9-dihydro-1H-naphthol[2,3-d]imidazole-3-iodide] | 1.37 | 1.97 | 1.05 | 74 |  |  |  | 
8 | C[n+]1cn(C(C)(C)C)c2c1/C(=N/O)c1ccccc1C2=O [Compound 98, (E)-1-(tert-butyl)-4-(hydroxylimino)-3-methyl-9-oxo-4,9-dihydro-1H-naphthol[2,3-d]imidazole-3-iodide] | 0.59 | 2.18 | 1.81 | 38.9 |  |  |  | 
9 | C[n+]1cn(C2CC2)c2c1/C(=N/O)c1ccccc1C2=O [Compound 99, (E)-1-cyclopropyl-4-(hydroxylimino)-3-methyl-9-oxo-4,9-dihydro-1H-naphthol[2,3-d]imidazole-3-iodide] | 1.72 | 5.74 | 1.63 | 19.8 |  |  |  | 
10 | COCCn1c[n+](C)c2c1C(=O)c1ccccc1/C2=N\O [Compound 100, (E)-4-(hydroxylimino)-1-(2-methoxyethyl)-3-methyl-9-oxo-4,9-dihydro-1H-naphthol[2,3-d]imidazole-3-iodide] | 0.62 | 2.18 | 0.87 | 6.64 |  |  |  | 
11 | CC(C)=CCn1c[n+](C)c2c1C(=O)c1ccccc1/C2=N\O [Compound 101, (E)-4-(hydroxylimino)-3-methyl-1-(3-methyl-2-ene-1-yl)-9-oxo-4,9-dihydro-1H-naphthol[2,3-d]imidazole-3-iodide] | 0.64 | 1.8 | 0.87 | 13.1 |  |  |  | 
12 | C[n+]1cn(Cc2ccccc2)c2c1/C(=N/O)c1ccccc1C2=O [Compound 102, (E)-1-benzyl-4-(hydroxylimino)-3-methyl-9-oxo-4,9-dihydro-1H-naphthol[2,3-d]imidazole-3-iodide] | 0.63 | 1.05 | 0.89 | 37.4 |  |  |  | 
13 | CCOC(=O)Cn1c[n+](C)c2c1C(=O)c1ccccc1/C2=N\O [Compound 103, (E)-1-(2-ethoxy-2-ethoxy)-4-(hydroxylimino)-3-methyl-9-oxo-4,9-dihydro-1H-naphthol[2,3-d]imidazole-3-iodide] | 0.6 | 2.73 | 1.63 | > 100 |  |  |  | 
14 | C[n+]1cn(-c2ccccc2)c2c1/C(=N/O)c1ccccc1C2=O [Compound 104, (E)-4-(hydroxylimino)-3-methyl-9-oxo-1-phenyl-4,9-dihydro-1H-naphthol[2,3-d]imidazole-3-iodide] | 12.2 | 12.5 | 1.43 | > 100 |  |  |  | 
15 | Cc1cc(C)c(-n2c[n+](C)c3c2C(=O)c2ccccc2/C3=N\O)c(C)c1 [Compound 105, (E)-4-(hydroxylimino)-1-sym-trimethyl-3-methyl-9-oxo-4,9-dihydro-1H-naphthol[2,3-d]imidazole-3-iodide] | 1.11 | 22.6 | 6.12 | > 100 |  |  |  | 
16 | C[n+]1cn(Cc2cccs2)c2c1/C(=N/O)c1ccccc1C2=O [Compound 106, (E)-4-(hydroxylimino)-3-methyl-9-oxo-1-(thiophene-2-yl-methyl)-4,9-dihydro-1H-naphthol[2,3-d]imidazole-3-iodide] | 11.2 | 9.2 | 20.2 | > 100 |  |  |  | 
17 | C[n+]1cn(CC2OCCO2)c2c1/C(=N/O)c1ccccc1C2=O [Compound 107, (E)-1-((1,3-dioxoheterocycle-2-yl)methyl)-4-(hydroxylimino)-3-methyl-9-oxo-4,9-dihydro-1H-naphthol[2,3-d]imidazole-3-iodide] | 0.6 | > 100 | 9.85 | > 100 |  |  |  | 
18 | C[n+]1cn(Cc2ccc(F)cc2)c2c1/C(=N/O)c1ccccc1C2=O [Compound 108, (E)-1-(4-fluorobenzyl)-4-(hydroxylimino)-3-methyl-9-oxo-4,9-dihydro-1H-naphthol[2,3-d]imidazole-3-iodide] | 0.5 | 2.38 | 1.63 | > 100 |  |  |  | 
19 | C[n+]1cn(-c2ccccc2F)c2c1/C(=N/O)c1ccccc1C2=O [Compound 109, (E)-1-(2-fluorophenyl)-4-(hydroxylimino)-3-methyl-9-oxo-4,9-dihydro-1H-naphthol[2,3-d]imidazole-3-iodide] | 11.2 | 50 | 57.8 | > 100 |  |  |  | 
20 | C[n+]1cn(-c2cccc(F)c2)c2c1/C(=N/O)c1ccccc1C2=O [Compound 110, (E)-1-(3-fluorophenyl)-4-(hydroxylimino)-3-methyl-9-oxo-4,9-dihydro-1H-naphthol[2,3-d]imidazole-3-iodide] | 17.2 | 49 | 42.3 | > 100 |  |  |  | 
21 | C[n+]1cn(-c2ccc(F)cc2)c2c1/C(=N/O)c1ccccc1C2=O [Compound 111, (E)-1-(4-fluorophenyl)-4-(hydroxylimino)-3-methyl-9-oxo-4,9-dihydro-1H-naphthol[2,3-d]imidazole-3-iodide] | 11.6 | 19.7 | 24.6 | > 100 |  |  |  | 
